Measured values: US20250313546A1, “NUCLEIC ACID BINDERS” (UNIVERSITY OF STRATHCLYDE, priority 2022, published 2025)
≈ marks a conversion by molar mass, not a printed value. Read-outs that look alike come from different tables or passages of the source.

What was measured:
[1] = test system: Staphylococcus aureus (ATCC 43300); test: Antibacterial MIC, broth microdilution (CLSI); format: cell-based; conditions: for MIC80: Staphylococcus aureus, ATCC43300, read-out: MIC80 S. aureus
[2] = test system: Enterococcus faecalis (ATCC 51299); test: Antibacterial MIC, broth microdilution (CLSI); format: cell-based; conditions: for MIC80: Enterococcus faecalis, ATCC51299, read-out: MIC80 E. faecalis
[3] = test system: Escherichia coli (ATCC 25922); test: Antibacterial MIC, broth microdilution (CLSI); format: cell-based; conditions: Escherichia coli, ATCC25922; read-out: MIC80 E. coli
[4] = test system: Aspergillus fumigatus; test: Expanded set of filamentous fungi, MIC broth microdilution (CLSI); format: cell-based
[5] = test system: Aspergillus flavus; test: as above; format: cell-based; conditions: MIC at 50% inhibition; for MIC50: Aspergillus flavus
[6] = test system: Fusarium oxysporum; test: as above; format: cell-based; conditions: MIC at 50% inhibition
[7] = test system: Fusarium solani; test: as above; format: cell-based; conditions: MIC at 50% inhibition
[8] = test system: Scedosporium spp.; test: as above; format: cell-based
[9] = test system: Lomentospora prolificans; test: as above; format: cell-based; conditions: isolate S2, MIC at 50% inhibition
[10] = test system: Paecilomyces variotii; test: as above; format: cell-based; conditions: isolate MYA-3630, MIC at 50% inhibition
[11] = test system: Rhizopus arrhizus; test: as above; format: cell-based
[12] = test system: Blastomyces dermatitidis; test: as above; format: cell-based
[13] = test system: Candida parapsilosis; test: Expanded set of yeasts, MIC broth microdilution (CLSI); format: cell-based; conditions: MIC at 50% inhibition; for MIC50: Lodderomyces parapsilosis
[14] = test system: C. krusei; test: as above; format: cell-based; conditions: Pichia kudriavzevii, ATCC6258; isolate ATCC 6258; MIC at 50% inhibition
[15] = test system: C. albicans; test: as above; format: cell-based; conditions: MIC at 50% inhibition; for MIC50: Candida albicans
[16] = test system: C. auris; test: as above; format: cell-based; conditions: MIC at 50% inhibition
[17] = test system: C. glabrata; test: as above; format: cell-based; conditions: Nakaseomyces glabratus, MIC at 50% inhibition
[18] = test system: C. guilliiermondii; test: as above; format: cell-based; conditions: MIC at 50% inhibition
[19] = test system: Genomic double stranded DNA (salmon); test: Fluorescence intercalator displacement (FID) assay, SYBR-safe probe; conditions: 20 μM compound, 30° C., lower % = stronger binding
Method in brief: (§1)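 Probe displacement was measured at 30 °C in 1 mM phosphate pH 7.4 containing SybrSafe (12500-fold dilution), 3.76 ng/mL nucleic acid (salmon dsDNA or polyAU dsRNA) and 20 μM compound. Fluorescence loss is normalised between probe-only and probe-plus-nucleic-acid controls.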

[20] = test system: PolyAU double stranded RNA; test: as above; conditions: 20 μM compound, 30° C., lower % = stronger binding
Method in brief: as §1

[21] = test system: C. albicans (ATCC 90028); conditions: Candida albicans, ATCC90028, read-out: MIC99 C. albicans
Protocol: (§2) The Minimum Inhibitory Concentration (MIC, at 99% inhibition) of the compounds was determined using the broth microdilution method as recommended by EUCAST (EUCAST Definitive Document E.DEF 9.3.2, Method for the determination of broth dilution minimum inhibitory concentrations of antifungal agents for conidia forming moulds and EUCAST Definitive Document E.DEF 7.3.2 Method for the determination of broth dilution minimum inhibitory concentrations of antifungal agents for yeasts).

[22] = test system: C. neoformans (F10025); conditions: Cryptococcus neoformans, read-out: MIC99 C. neoformans
[23] = test system: A. fumigatus A1160 (MFIG001); conditions: Aspergillus fumigatus, read-out: MIC99 A. fumigatus A1160
[24] = test system: A. flavus (CBS 128.202); conditions: Aspergillus flavus, CBS128, read-out: MIC99 A. flavus
Protocol: as §2

[25] = test system: Rhizopus arrhizus (NEQAS12.35321); conditions: read-out: MIC99 Rhizopus arrhizus
[26] = test system: Candida auris (H.17.157); conditions: Candidozyma auris, read-out: MIC99 Candida auris
Protocol: as §2

[27] = test system: Candida glabrata (ACPF3309); conditions: Nakaseomyces glabratus, read-out: MIC99 Candida glabrata
[28] = test system: Fusarium oxysporum (F7098); conditions: read-out: MIC99 Fusarium oxysporum
Protocol: as §2

[29] = test system: Scedosporium prolificans (F2746); conditions: Lomentospora prolificans, read-out: MIC99 Scedosporium prolificans
[30] = test system: T. equiperdum; test: Resazurin-based (Alamar blue) drug sensitivity assay; conditions: Trypanosoma equiperdum, read-out: IC50 T. equiperdum
[31] = test system: T. evansi AntTat 3/3; test: as above; conditions: read-out: IC50 T. evansi
Protocol: A detailed description of the procedure for evaluating activity against trypanosomes, using an Alamar Blue (resazurin) assay, is described below.
The bloodstream form (BSF) T. b. brucei s427 (see De Koning, H. P. et al., Mol. Biochem. Parasitol. 2000, 106, 181-185), T. evansi AntTat 3/3 (see Dean, S. et al., Proc. Natl. Acad. Sci. USA, 2013, 110, 14741-14746), and T. equiperdum (see Stewart, M. L. et al., Eukaryot. Cell, 2010, 9, 336-343) were cultured in HMI-9 medium (Life Technologies, Paisley, United Kingdom) supplemented with 10% heat inactivated Foetal Bovine Serum (FBS (PAA Laboratories Linz, Austria)), 14 μL/L β-mercaptoethanol (BDH, Dorset, UK), and 3.0 g/L NaHCO3 (Sigma-Aldrich) and adjusted to pH 7.4. These cell lines were maintained at 37° C. in a humidified, 5% CO2 environment.
A resazurin-based (Alamar blue) drug sensitivity assay was used to assess and compare the activity of standard trypanocides in the different cell lines investigated (see Gould, M. K. et al., Anal. Biochem., 2008, 382, 87-93). Briefly, 23 doubling dilutions of the test compound of the invention, starting at 100 μM, and a compound-free control were prepared in 100 μL medium in a 96-well white plate (Greiner Bio-one, Frickenhausen, Germany). The cells were adjusted to 2×10^4 cells/mL for T. b. brucei and T. equiperdum; 4×10^4 cells/mL for T. evansi; and 5×10^5 cells/mL for T. congolense in the appropriate medium. 100 μL of the adjusted cells was then added to the wells containing drug dilutions and incubated for 48 h under respective culture condition. Thereafter, 20 μL of 125 mg/mL resazurin sodium dye was added, and the plate was incubated for a further 24 h.

[32] = SI, IC50 (μM)/MIC80 (μM), HEK293 cytotoxicity, Alkyl Amidines and NH Pyrroles

With CNC(=N)CCNC(=O)c1cc(NC(=O)c2cc(NC(=O)c3ccc(/C=C/c4cnc5ccccc5c4)cc3)cn2C)cn1C [Ia27, (E)-N-(3-imino-3-(methylamino)propyl)-1-methyl-4-(1-methyl-4-(4-(2-(quinolin-3-yl)vinyl)benzamido)-1H-pyrrole-2-carboxamido)-1H-pyrrole-2-carboxamide] the MIC80 [1] was < 5 µM, the MIC80 [2] was < 5 µM and the MIC80 [3] was > 100 µM. For the same molecule, the MIC50 ([4]; isolate AF293, MIC at 50% inhibition) was ≤ 1 µg/mL, the MIC50 ([4]; isolate DI15-106, MIC at 50% inhibition) was ≤ 1 µg/mL and the MIC50 ([4]; isolate DI15-116, MIC at 50% inhibition) was ≤ 1 µg/mL. For the same molecule, the MIC50 ([4]; isolate DI19-187, MIC at 50% inhibition) was ≤ 1 µg/mL, the MIC50 ([4]; isolate DI19-230, MIC at 50% inhibition) was ≤ 1 µg/mL and the MIC50 ([4]; isolate DI19-231, MIC at 50% inhibition) was ≤ 1 µg/mL. For the same molecule, the MIC50 ([4]; isolate DI19-232, MIC at 50% inhibition) was ≤ 1 µg/mL, the MIC50 ([4]; isolate DI19-233, MIC at 50% inhibition) was ≤ 1 µg/mL and the MIC50 ([4]; isolate DI19-234, MIC at 50% inhibition) was ≤ 1 µg/mL. The MIC50 ([4]; isolate DI19-236, MIC at 50% inhibition) was ≤ 1 µg/mL, the MIC50 ([4]; isolate DI19-237, MIC at 50% inhibition) was ≤ 1 µg/mL and the MIC50 ([4]; isolate DI20-95, MIC at 50% inhibition) was ≤ 1 µg/mL. For the same molecule, the MIC50 ([4]; isolate DI20-103, MIC at 50% inhibition) was ≤ 1 µg/mL, the MIC50 ([5]; ATCC204304, isolate ATCC 204304) was ≤ 1 µg/mL and the MIC50 ([5]; isolate Aflav2) was ≤ 1 µg/mL. For the same molecule, the “MIC50 Aspergillus flavus” value ([5]; isolate Aflav3) was “*** (*** means MIC50 <= 1 μg/mL)”, the MIC50 ([6]; Fusarium oxysporum, isolate F2) was ≤ 1 µg/mL and the “MIC50 Fusarium oxysporum” value ([6]; isolate F3) was “*** (*** means MIC50 <= 1 μg/mL)”. For the same molecule, the MIC50 ([7]; Fusarium solani, isolate F4) was ≤ 1 µg/mL, the “MIC50 Fusarium solani” value ([7]; isolate DI19-284) was “*** (*** means MIC50 <= 1 μg/mL)” and the MIC50 ([8]; isolate S1, MIC at 50% inhibition) was ≤ 1 µg/mL. For the same molecule, the MIC50 ([8]; isolate S3, MIC at 50% inhibition) was ≤ 1 µg/mL, the MIC50 [9] was ≤ 1 µg/mL and the MIC50 [10] was 1 to 8 µg/mL (≈ 1.66 to 13.3 µM). For the same molecule, the MIC50 ([11]; isolate 99-880, MIC at 50% inhibition) was ≤ 1 µg/mL, the MIC50 ([11]; isolate 99-892, MIC at 50% inhibition) was ≤ 1 µg/mL and the MIC50 ([11]; isolate RA3, MIC at 50% inhibition) was 1 to 8 µg/mL (≈ 1.66 to 13.3 µM). It also gave an MIC50 ([12]; isolate BD1, MIC at 50% inhibition) of 1 to 8 µg/mL (≈ 1.66 to 13.3 µM), an MIC50 ([12]; isolate BD2, MIC at 50% inhibition) of 1 to 8 µg/mL (≈ 1.66 to 13.3 µM) and an MIC50 ([12]; isolate BD3, MIC at 50% inhibition) of 8 to 32 µg/mL (≈ 13.3 to 53.1 µM). For the same molecule, the MIC50 ([13]; ATCC22019, isolate ATCC 22019, read-out: MIC50 Candida parapsilosis) was 1 to 8 µg/mL (≈ 1.66 to 13.3 µM), the MIC50 ([13]; isolate CP1, read-out: MIC50 C. parapsilosis) was 1 to 8 µg/mL (≈ 1.66 to 13.3 µM) and the “MIC50 C. parapsilosis” value ([13]; isolate CP2) was “** (** means 1 μg/mL < MIC50 <= 8 μg/mL)”. For the same molecule, the “MIC50 C. parapsilosis” value ([13]; isolate CP3) was “** (** means 1 μg/mL < MIC50 <= 8 μg/mL)”, the MIC50 [14] was ≤ 1 µg/mL and the MIC50 ([15]; isolate CA3) was 1 to 8 µg/mL (≈ 1.66 to 13.3 µM). The MIC50 ([15]; isolate SC5314) was 1 to 8 µg/mL (≈ 1.66 to 13.3 µM), the “MIC50 C. albicans” value ([15]; isolate CA90028) was “** (** means 1 μg/mL < MIC50 <= 8 μg/mL)” and the MIC50 ([16]; Candidozyma auris, isolate DI17-47) was 1 to 8 µg/mL (≈ 1.66 to 13.3 µM). The “MIC50 C. auris” value ([16]; isolate DI17-46) was “** (** means 1 μg/mL < MIC50 <= 8 μg/mL)”, the “MIC50 C. auris” value ([16]; isolate DI17-48) was “** (** means 1 μg/mL < MIC50 <= 8 μg/mL)” and the MIC50 ([17]; isolate 05-62) was ≤ 1 µg/mL. The MIC50 ([17]; isolate 05-761) was ≤ 1 µg/mL, the MIC50 ([17]; isolate CG3) was ≤ 1 µg/mL and the MIC50 ([18]; isolate Cgui1) was 1 to 8 µg/mL (≈ 1.66 to 13.3 µM). For the same molecule, the “MIC50 C. guilliiermondii” value ([18]; isolate Cgui2) was “** (** means 1 μg/mL < MIC50 <= 8 μg/mL)”, the “MIC50 C. guilliiermondii” value ([18]; isolate Cgui3) was “** (** means 1 μg/mL < MIC50 <= 8 μg/mL)” and the “% Normalised Fluorescence with gDNA” value [19] was 13%. The “% Normalised Fluorescence with polyAU RNA” value [20] was 17%.
For CN(C)c1ccc(/C=C/c2ccc(C(=O)Nc3cc(C(=O)Nc4c[nH]c(C(=O)NCCN5CCOCC5)c4)n(C)c3)cn2)cc1 [IIIb3, (E)-6-(4-(dimethylamino)styryl)-N-(1-methyl-5-((5-((2-morpholinoethyl)carbamoyl)-1H-pyrrol-3-yl)carbamoyl)-1H-pyrrol-3-yl)nicotinamide], the MIC80 [1] was < 5 µM, the MIC80 [2] was > 100 µM and the MIC80 [3] was > 100 µM. For the same molecule, the “% Normalised Fluorescence with gDNA” value [19] was 31%, the “% Normalised Fluorescence with polyAU RNA” value [20] was 39% and the MIC99 [21] was > 50 µg/mL. For the same molecule, the MIC99 [22] was > 50 µg/mL, the MIC99 [23] was 25 to 50 µg/mL (≈ 40.9 to 81.9 µM) and the MIC99 [24] was > 50 µg/mL. The MIC99 [25] was > 50 µg/mL, the MIC99 [26] was > 50 µg/mL and the MIC99 [27] was > 50 µg/mL. The MIC99 [28] was > 50 µg/mL and the MIC99 [29] was > 50 µg/mL.
Cn1cc(NC(=O)c2cc(NC(=O)c3ccc(/C=C/c4ccc5nonc5c4)cc3)c[nH]2)cc1C(=O)NCCC(=N)N [IIIa1, (E)-N-(3-amino-3-iminopropyl)-4-(4-(4-(2-(benzo[c][1,2,5]oxadiazol-5-yl)vinyl)benzamido)-1H-pyrrole-2-carboxamido)-1-methyl-1H-pyrrole-2-carboxamide] was tested, and the “S. aureus Selectivity Indices, Group” value [1, 32] was “C (Group C: 5 < SI <= 10)”, the MIC80 [1] was < 5 µM and the MIC80 [2] was 5 to 25 µM (≈ 2.83 to 14.1 µg/mL). For the same molecule, the “E. faecalis Selectivity Indices, Group” value [2, 32] was “B (Group B: 3 < SI <= 5)”, the MIC80 [3] was > 100 µM and the “% Normalised Fluorescence with gDNA” value [19] was 17%. For the same molecule, the “% Normalised Fluorescence with polyAU RNA” value [20] was 18%, the MIC99 [21] was 25 to 50 µg/mL (≈ 44.2 to 88.4 µM) and the MIC99 [22] was < 5 µg/mL. The MIC99 [23] was 5 to 25 µg/mL (≈ 8.84 to 44.2 µM), the MIC99 [24] was 5 to 25 µg/mL (≈ 8.84 to 44.2 µM) and the MIC99 [25] was 5 to 25 µg/mL (≈ 8.84 to 44.2 µM). The MIC99 [26] was > 50 µg/mL, the MIC99 [27] was < 5 µg/mL and the MIC99 [28] was 5 to 25 µg/mL (≈ 8.84 to 44.2 µM). The MIC99 [29] was 5 to 25 µg/mL (≈ 8.84 to 44.2 µM), the IC50 [30] was 10 to 100 nM and the IC50 [31] was 10 to 100 nM.
